Experimental data as given in ChEMBL document CHEMBL3885881, “DrugMatrix”.

Species: Rattus norvegicus
Experiment: DrugMatrix - Regimen: Daily Repeat
Type: toxicity, organism-based, Sprague-Dawley
Parameters: regimen Daily Repeat, gender Male, age 6-8 weeks
Conditions: in vivo, po, route oral GAVAGE, vehicle .5 % CMC; for ABSOLUTE BASOPHIL / ABSOLUTE EOSINOPHIL / ABSOLUTE LYMPHOCYTE / ABSOLUTE MONOCYTE / ABSOLUTE SEGMENTED NEUTROPHIL / BASOPHIL / EOSINOPHIL / ERYTHROCYTE COUNT / HEMATOCRIT / HEMOGLOBIN / LEUKOCYTE COUNT / LYMPHOCYTE / MEAN CORPUSCULAR HEMOGLOBIN / MEAN CORPUSCULAR HEMOGLOBIN CONCENTRATION / MEAN CORPUSCULAR VOLUME / MONOCYTE / NEUTROPHIL / NUCLEATED RED BLOOD CELLS / PLATELET COUNT: tissue Blood; for ALANINE AMINOTRANSFERASE / ALBUMIN / ALKALINE PHOSPHATASE / ASPARTATE AMINOTRANSFERASE / BLOOD UREA NITROGEN / CARBON DIOXIDE / CHLORIDE / CHOLESTEROL / CREATINE PHOSPHOKINASE / CREATININE / GLUCOSE / LACTATE DEHYDROGENASE / LIPASE / PHOSPHORUS / POTASSIUM / SODIUM / TOTAL BILIRUBIN / TOTAL PROTEIN / URIC ACID: tissue Plasma
[1] = 0 mg/kg, 72 h, dose level Control, time 3 day
[2] = 0 mg/kg, 120 h, dose level Control, time 5 day
[3] = 40 mg/kg, 72 h, dose level Low, time 3 day

C[C@@](Cc1ccc(O)c(O)c1)(NN)C(=O)O.O [CARBIDOPA]
ABSOLUTE BASOPHIL [1]: 0 CELLS/uL | ABSOLUTE EOSINOPHIL [1]: 222.83 CELLS/uL | ABSOLUTE LYMPHOCYTE [1]: 14453 CELLS/uL | ABSOLUTE MONOCYTE [1]: 0 CELLS/uL | ABSOLUTE SEGMENTED NEUTROPHIL [1]: 1490.83 CELLS/uL | BASOPHIL [1]: 0% | EOSINOPHIL [1]: 1.33% | ERYTHROCYTE COUNT [1]: 5.76 x10E6/uL | HEMATOCRIT [1]: 36.52% | HEMOGLOBIN [1]: 13.45 G/DL | LEUKOCYTE COUNT [1]: 16.17 x10E3/uL | LYMPHOCYTE [1]: 89.33% | MEAN CORPUSCULAR HEMOGLOBIN [1]: 23.37 pg | MEAN CORPUSCULAR HEMOGLOBIN CONCENTRATION [1]: 36.85 G/DL | MEAN CORPUSCULAR VOLUME [1]: 63.47 fL | MONOCYTE [1]: 0% | NEUTROPHIL [1]: 9.33% | NUCLEATED RED BLOOD CELLS [1]: 0 /100WBC | PLATELET COUNT [1]: 1239.5 x10E3/uL | ALANINE AMINOTRANSFERASE [1]: 43.83 u/L | ALBUMIN [1]: 4.27 G/DL | ALKALINE PHOSPHATASE [1]: 398.83 u/L | ASPARTATE AMINOTRANSFERASE [1]: 81.17 u/L | BLOOD UREA NITROGEN [1]: 17.67 mg/dL | CARBON DIOXIDE [1]: 27.5 mmol/L | CHLORIDE [1]: 99.17 MEQ/L | CHOLESTEROL [1]: 74 mg/dL | CREATINE PHOSPHOKINASE [1]: 331.5 u/L | CREATININE [1]: 0.2 mg/dL | GLUCOSE [1]: 171.33 mg/dL | LACTATE DEHYDROGENASE [1]: 241.67 u/L | LIPASE [1]: 9.5 u/L | PHOSPHORUS [1]: 12.25 mg/dL | POTASSIUM [1]: 6.33 MEQ/L | SODIUM [1]: 141.28 MEQ/L | TOTAL BILIRUBIN [1]: 0.15 mg/dL | TOTAL PROTEIN [1]: 5.98 G/DL | URIC ACID [1]: 1.63 mg/dL | ABSOLUTE BASOPHIL [2]: 0 CELLS/uL | ABSOLUTE EOSINOPHIL [2]: 148.67 CELLS/uL | ABSOLUTE LYMPHOCYTE [2]: 16020.5 CELLS/uL | ABSOLUTE MONOCYTE [2]: 29.17 CELLS/uL | ABSOLUTE SEGMENTED NEUTROPHIL [2]: 1468.33 CELLS/uL | BASOPHIL [2]: 0% | EOSINOPHIL [2]: 1% | ERYTHROCYTE COUNT [2]: 5.78 x10E6/uL | HEMATOCRIT [2]: 35.77% | HEMOGLOBIN [2]: 13.4 G/DL | LEUKOCYTE COUNT [2]: 17.67 x10E3/uL | LYMPHOCYTE [2]: 90.5% | MEAN CORPUSCULAR HEMOGLOBIN [2]: 23.22 pg | MEAN CORPUSCULAR HEMOGLOBIN CONCENTRATION [2]: 37.47 G/DL | MEAN CORPUSCULAR VOLUME [2]: 61.92 fL | MONOCYTE [2]: 0.17% | NEUTROPHIL [2]: 8.33% | NUCLEATED RED BLOOD CELLS [2]: 0.17 /100WBC | PLATELET COUNT [2]: 1255.5 x10E3/uL | ALANINE AMINOTRANSFERASE [2]: 46.5 u/L | ALBUMIN [2]: 4.38 G/DL | ALKALINE PHOSPHATASE [2]: 336 u/L | ASPARTATE AMINOTRANSFERASE [2]: 76.5 u/L | BLOOD UREA NITROGEN [2]: 20 mg/dL | CARBON DIOXIDE [2]: 27.5 mmol/L | CHLORIDE [2]: 101 MEQ/L | CHOLESTEROL [2]: 71.33 mg/dL | CREATINE PHOSPHOKINASE [2]: 231.83 u/L | CREATININE [2]: 0.37 mg/dL | GLUCOSE [2]: 168.83 mg/dL | LACTATE DEHYDROGENASE [2]: 174 u/L | LIPASE [2]: 8.67 u/L | PHOSPHORUS [2]: 11.48 mg/dL | POTASSIUM [2]: 6.82 MEQ/L | SODIUM [2]: 143.8 MEQ/L | TOTAL BILIRUBIN [2]: 0.2 mg/dL | TOTAL PROTEIN [2]: 5.98 G/DL | URIC ACID [2]: 1.83 mg/dL | ABSOLUTE BASOPHIL [3]: 0 CELLS/uL | ABSOLUTE EOSINOPHIL [3]: 143.67 CELLS/uL | ABSOLUTE LYMPHOCYTE [3]: 13232.67 CELLS/uL | ABSOLUTE MONOCYTE [3]: 0 CELLS/uL | ABSOLUTE SEGMENTED NEUTROPHIL [3]: 1090.33 CELLS/uL | BASOPHIL [3]: 0% | EOSINOPHIL [3]: 1% | ERYTHROCYTE COUNT [3]: 5.57 x10E6/uL | HEMATOCRIT [3]: 35.7% | HEMOGLOBIN [3]: 13.3 G/DL | LEUKOCYTE COUNT [3]: 14.47 x10E3/uL | LYMPHOCYTE [3]: 91.67% | MEAN CORPUSCULAR HEMOGLOBIN [3]: 23.87 pg | MEAN CORPUSCULAR HEMOGLOBIN CONCENTRATION [3]: 37.27 G/DL | MEAN CORPUSCULAR VOLUME [3]: 64.03 fL | MONOCYTE [3]: 0% | NEUTROPHIL [3]: 7.33% | NUCLEATED RED BLOOD CELLS [3]: 0 /100WBC | PLATELET COUNT [3]: 1331.33 x10E3/uL | ALANINE AMINOTRANSFERASE [3]: 40.33 u/L | ALBUMIN [3]: 4.27 G/DL | ALKALINE PHOSPHATASE [3]: 388.33 u/L | ASPARTATE AMINOTRANSFERASE [3]: 77 u/L | BLOOD UREA NITROGEN [3]: 14 mg/dL | CARBON DIOXIDE [3]: 29 mmol/L | CHLORIDE [3]: 100.67 MEQ/L | CHOLESTEROL [3]: 72.33 mg/dL | CREATINE PHOSPHOKINASE [3]: 210.67 u/L | CREATININE [3]: 0.21 mg/dL | GLUCOSE [3]: 156 mg/dL | LACTATE DEHYDROGENASE [3]: 151.33 u/L | LIPASE [3]: 8.33 u/L | PHOSPHORUS [3]: 12.9 mg/dL | POTASSIUM [3]: 6.71 MEQ/L | SODIUM [3]: 144.3 MEQ/L | TOTAL BILIRUBIN [3]: 0.23 mg/dL | TOTAL PROTEIN [3]: 5.9 G/DL | URIC ACID [3]: 1.83 mg/dL
